Assay results taken from patent publication US20260240826A1, “COMPOSITIONS FOR PD-L1 INHIBITION AND METHODS OF USE THEREOF” (ARIZONA BOARD OF REGENTS ON BEHALF OF THE UNIVERSITY OF …, priority 2023, published 2026).

Tests used:
PD-L1 [1] = assay: PD-L1 mRNA in SKH-1 mouse skin by RT-qPCR; format: in vivo; settings: topical 8 mM; 24 hr after SSL
Method: (§1) UVB exposure was performed on AP-1 luciferase reporter mice on the SKH-1 genetic background at a dose of 2.75 kJ/m2 using FS40 bulbs (Q-Lab Corporation) as described before with the modification that mice were imaged 24 hr post UVB exposure using whole body bioluminescence instead of 48 hr post UVB using ear punches. SSL irradiation of SKH-1 mice (Charles River Laboratories, strain code 477) at a dose of 90 kJ/m2 UVA/6 kJ/m2 UVB was performed using UVA-340 bulbs (Q-Lab Corporation) as described before.
(§2) Total RNA was isolated from SSL-treated mouse skin using the Qiagen RNeasy Mini Kit (Qiagen) according to the manufacturer's protocol. RNA integrity was checked by the RNA 6000 Nano chip kit using Agilent 2100 Bioanalyzer (Agilent Technologies). […] Then, 10 ng of cDNA was used for amplification of target genes by quantitative PCR using the following conditions: 95° C. for 10 min followed by 95° C. for 15 sec and 60° C. for 1 min for a total of 40 cycles performed in the ABI7500 Real-Time PCR System (Applied Biosystems). […] After amplification plots were generated, the Ct values (cycle number at which fluorescence reaches threshold) were recorded and quantified using the comparative (ΔΔCt) Ct method as described in the ABI Prism 7500 sequence detection system user guide. Statistical significance was calculated employing the Student's two-tailed t-test.

[2] = cited from earlier work
[3] = screening based on physicochemical properties (Log P, UVA/UVB absorbance); settings: data not shown
[4] = test system: AP-1 luciferase SKH-1 reporter mice; assay: AP-1 SKH-1 reporter mouse bioluminescence; format: in vivo; settings: topical 8 mM; imaged 24 hr after UVB
Method: as §1
Male transgenic SKH-1 mice heterozygous for the TPA-Response Element (TRE)-driven luciferase transgene (“AP-1 luciferase” mice, n=3) were treated topically on their backs with 200 μL of 8 mM BMS-202 or vehicle control (acetone). For all mice receiving BMS-202, the compound was applied twice before (24 hr and 1 hr) as well as immediately after UV exposure, a dose regimen ensuring efficient target modulation, similar to topical non-sunscreen photoprotection approaches. Mice were injected i.p. with luciferin (potassium salt) stock solution in PBS without magnesium or calcium at a dose of <150 mg/kg of body weight 24 hr after UV exposure and imaged (Lago instrument, Spectral Instruments Imaging) with Aura software analysis.

[5] = cited from earlier work; remark: listed apart in the source
PD-L1 [6] = assay: SSL-induced PD-L1 protein in SKH-1 mouse epidermis, immunoblot; format: in vivo; settings: topical 8 mM; 24 hr post SSL
Method: as §1
Cells were lysed in RIPA containing 1×HALT protease+phosphatase inhibitor cocktail (ThermoFisher Scientific) and 100 mM PMSF and protein concentrations were assessed using BCA assay (Bio-Rad). Mouse epidermal protein lysates for immunoblot analysis were derived from scraped frozen SKH-1 skins as described previously (Blohm-Mangone et al., 2018). Twenty μg of protein/lane were loaded onto 10% gels for electrophoresis/immunoblotting using established protocols. Human cell lysate blots were probed with Cell Signaling PD-L1 antibody #13684, and mouse epidermal lysate blots were probed with Invitrogen PD-L1 antibody #PA5-20343. Beta-actin (Cell Signaling #4970) was used as a loading control. An anti-rabbit secondary antibody (Cell Signaling #7074) was used for all blots using standard chemiluminescent protocols (Thermo Scientific Pico ECL #34577). […]

PD-L1 [7] = assay: SSL-induced PD-L1 protein in primary epidermal keratinocytes (HEK), immunoblot; format: cell-based; settings: human primary keratinocytes (HEK cells)
Method: For SSL treatment, UVA-340 bulbs (Q-Lab Corporation) were used. Before exposure, cells were washed with 1×PBS and then incubated in 4 mL PBS (with 0.01% MgCl2 and 0.01% CaCl2) during irradiation. Cells were exposed to 40 kJ/m2 UVA/2.68 kJ/m2 UVB, then rinsed once more with PBS prior to being placed back into DMEM with 1% FBS+penicillin/streptomycin and vehicle or BMS-202 (post-treatment) and incubated until harvest 24 hr later. Control cells underwent identical processing, except were held in the biosafety cabinet without UV exposure.
Adult human epithelial keratinocytes (HEKs) were purchased from Thermo Scientific and maintained in EpiLife media on collagen-coated plates as per the vendor's instructions. Cells were treated with BMS-202 and SSL as described for HaCaT cells.
Cells were lysed in RIPA containing 1×HALT protease+phosphatase inhibitor cocktail (ThermoFisher Scientific) and 100 mM PMSF and protein concentrations were assessed using BCA assay (Bio-Rad). Mouse epidermal protein lysates for immunoblot analysis were derived from scraped frozen SKH-1 skins as described previously (Blohm-Mangone et al., 2018). Twenty μg of protein/lane were loaded onto 10% gels for electrophoresis/immunoblotting using established protocols. […]

[8] = test system: Il1β, Il6, Il10, Tnfα, Ptgs2, Tlr4 expression in SKH-1 mouse skin; assay: RT-qPCR of SSL-induced inflammatory genes in SKH-1 mouse skin; format: in vivo; settings: 8 mM BMS-202+SSL vs vehicle+SSL; 24 hr
Method: as §1, §2

cleaved caspase-3 = cleaved caspase-3 immunohistochemistry of SKH-1 mouse skin; format: in vivo; settings: BMS-202+SSL, 24 hr; vehicle+SSL over 60%
Method: as §1
Caspase-3: Briefly, deparaffinized mouse skin slides were subjected to antigen retrieval using a Decloaking chamber in Rodent Decloaker HIER solution (both from Biocare, 115° C. 30 seconds, then 90° C. 10 seconds) followed by blocking with first 3% hydrogen peroxide (10 minutes) and then 5% normal goat serum in PBST (1 hour). Slides were then incubated in a 1:300 dilution of anti-cleaved caspase-3 antibody (#9661, Cell Signal Technology) at 4° C. overnight. […] For quantification, the average count (caspase 3-positive per total epidermal cells) in four fields/slide (20× field) was determined for each mouse skin specimen and calculated per group (n=3).
Mouse IHC data were analyzed using Kruskal-Wallis non-parametric data analysis (GraphPad Prism 10.0 software). […]

For `COc1nc(OCc2cccc(-c3ccccc3)c2C)ccc1CNCCNC(C)=O` [BMS-202], the “PD-L1 mRNA expression in full thickness mouse skin (RT-qPCR)” value (PD-L1 [1]) is listed as “inhibition”, the “systemic availability upon topical application” value [2] is listed as “minimal systemic availability” and the UVA/UVB absorbance [3] is listed as “absence of UVA/UVB absorbance”. The “attenuation in bioluminescent signal intensity (UV-induced AP-1 stress response)” value [4] was ~5 fold, the “Log P” value [5] was 3.6 and the “UV-induced PD-L1 upregulation at the protein level (immunoblot)” value (PD-L1 [6]) was “significantly antagonized”. For the same compound, the “antagonistic effect on PD-L1 protein, pre- and post-UV application versus pre only” value (PD-L1 [6]) was “more pronounced”, the “SSL-induced PD-L1 protein upregulation (immunoblot)” value (PD-L1 [7]) was “reproducible” and the “UV-induced expression of Il1β, Il6, Il10, Tnfα, Ptgs2, Tlr4 (RT-qPCR)” value [8] was “strong downregulation”. For the same compound, the “percentage of epidermal cells staining positive for cleaved caspase-3” value (cleaved caspase-3) was “approximately 10%”.
